Laboratory results reported in US9896441B2 (Lycera Corporation, priority 2014, dated 2018).
pEC50: −log10 of the molar value.

What was measured:
RORγ-LBD = target: T1, RORγ-LBD (Homo sapiens, UniProt P51449); assay: RORγ-Ligand Binding Domain (LBD) TR-FRET Assay; assay type: biochemical; conditions: RORγ-LBD TR-FRET assay; for TR-FRET Assay Max Response: maximum response;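 on TR-FRET Assay Max Response: 665/615 nm signal ratio set to 100 without ursolic acid or test compound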
T1 construct: made in house; host or cells: SF9 cells (baculovirus); used as diluted lysate
T1 sequence (P51449 269-508 limits assumed): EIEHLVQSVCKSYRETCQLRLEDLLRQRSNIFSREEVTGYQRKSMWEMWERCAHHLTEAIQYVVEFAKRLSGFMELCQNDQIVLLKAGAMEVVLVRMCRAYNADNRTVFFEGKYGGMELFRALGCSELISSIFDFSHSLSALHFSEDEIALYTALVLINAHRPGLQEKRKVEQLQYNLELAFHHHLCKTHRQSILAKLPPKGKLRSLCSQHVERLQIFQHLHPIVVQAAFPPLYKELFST
Summary of the method: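 His-tagged RORγ-LBD from SF9 baculovirus lysate, ~3 nM final, in 50 mM Tris pH 7.0, 50 mM KCl, 1 mM EDTA, 0.1 mM DTT, 0.01% BSA. Biotinylated SRC1 LXXLL peptide at 200 nM final with 2 μM ursolic acid; TR-FRET read-out, 1% DMSO final.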

Gal4-RORγ-LBD = target: T2, Gal4-RORγ-LBD (Homo sapiens, UniProt P51449); assay: Gal4-RORγ Luciferase Reporter Assay in HEK-293T Cells; assay type: cell-based; conditions: HEK-293 cells, luciferase reporter, in presence of ursolic acid; for Gal4-RORγ Assay Max Response: maximum response
T2 construct: expressed in transfected cells
T2 sequence (P51449 269-508 limits assumed): T1 sequence (P51449 269-508 limits assumed)
Summary of the method: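 HEK-293 cells were co-transfected with Gal4-RORγ-LBD and a Gal4-luciferase reporter, then exposed overnight at 37 °C to compounds with […] ursolic acid present (0.2% DMSO). Luminescence was read with One-Glo after 10 min at RT, untreated signal was set as 100, and Max Response was taken as the upper plateau of a 4-parameter logistic fit.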

Compound	pEC50 (RORγ-LBD)	pEC50 (Gal4-RORγ-LBD)	TR-FRET Assay Max Response (RORγ-LBD)	Gal4-RORγ Assay Max Response (Gal4-RORγ-LBD)
C/C(=C\c1ccc2c(c1)N(S(=O)(=O)c1cccc(C(F)(F)F)c1)C[C@H](CCCN1CCC(C(=O)O)CC1)O2)c1c(F)cccc1Cl [Example 123, (S,E)-1-(3-(6-(2-(2-Chloro-6-fluorophenyl)prop-1-en-1-yl)-4-((3-(trifluoromethyl)phenyl)sulfonyl)-3,4-dihydro-2H-benzo[b][1,4]oxazin-2-yl)propyl)piperidine-4-carboxylic acid]	> 6.30	5.30 to 6.30	** (a value in the range of greater than 90 to 150)	** (a value in the range of greater than 90 to 150)
C/C(=C\c1ccc2c(c1)N(S(=O)(=O)c1cccc(C(F)(F)F)c1)C[C@H](CCN1CCC[C@H]1C(=O)O)O2)c1c(F)cccc1Cl [Example 124, (2-((S)-6-((E)-2-(2-Chloro-6-fluorophenyl)prop-1-en-1-yl)-4-((3-(trifluoromethyl)phenyl)sulfonyl)-3,4-dihydro-2H-benzo[b][1,4]oxazin-2-yl)ethyl)-L-proline]	> 6.30	5.30 to 6.30	*** (a value in the range of greater than 150 to 200)	** (a value in the range of greater than 90 to 150)
C/C(=C\c1ccc2c(c1)N(S(=O)(=O)c1cccc(C(F)(F)F)c1)C[C@H](CO)O2)c1c(F)cccc1Cl [Example 125, (R,E)-(6-(2-(2-Chloro-6-fluorophenyl)prop-1-en-1-yl)-4-((3-(trifluoromethyl)phenyl)sulfonyl)-3,4-dihydro-2-h-benzo[b][1,4]oxazin-2-yl)methanol]	> 6.30	> 6.30	*** (a value in the range of greater than 150 to 200)	** (a value in the range of greater than 90 to 150)
C/C(=C\c1ccc2c(c1)N(S(=O)(=O)c1cccc(C(F)(F)F)c1)C[C@H](CCC(=O)N1CCCC1)O2)c1c(F)cccc1Cl [Example 126, (S,E)-3-(6-(2-(2-Chloro-6-fluorophenyl)prop-1-en-1-yl)-4-((3-(trifluoromethyl)phenyl)sulfonyl)-3,4-dihydro-2H-benzo[b][1,4]oxazin-2-yl)-1-(pyrrolidin-1-yl)propan-1-one]	> 6.30	> 6.30	** (a value in the range of greater than 90 to 150)	** (a value in the range of greater than 90 to 150)
C/C(=C\c1ccc2c(c1)N(S(=O)(=O)c1cccc(C(F)(F)F)c1)C[C@H](CCC(=O)N1CCC(C(N)=O)CC1)O2)c1c(F)cccc1Cl [Example 127A, (S,E)-1-(3-(6-(2-(2-chloro-6-fluoro-phenyl)-prop-1-en-1-yl)-4-((3-(trifuoromethyl)phenyl)sulfonyl)-3,4-dihydro-2H-benzo[b][1,4]oxazin-2-yl)propanoyl)piperidine-4-carboxamide]	> 6.30	> 6.30	**** (a value greater than 200)	** (a value in the range of greater than 90 to 150)
C/C(=C\c1ccc2c(c1)N(S(=O)(=O)c1cccc(C(F)(F)F)c1)C[C@H](CCC(=O)N1CCOCC1)O2)c1c(F)cccc1Cl [Example 127B, (S,E)-3-(6-(2-(2-chloro-6-fluorophenyl)prop-1-en-1-yl)-4-((3-(trifluoromethyl)phenyl)sulfonyl)-3,4-dihydro-2H-benzo[b][1,4]oxazin-2-yl)-1-morpholino-propan-1-one]	> 6.30	> 6.30	**** (a value greater than 200)	** (a value in the range of greater than 90 to 150)
C/C(=C\c1ccc2c(c1)N(S(=O)(=O)c1cccc(C(F)(F)F)c1)C[C@H](CCC(=O)N1CCS(=O)(=O)CC1)O2)c1c(F)cccc1Cl [Example 127C, (S,E)-3-(6-(2-(2-chloro-6-fluorophenyl)prop-1-en-1-yl)-4-((3-(trifluoro-methyl)phenyl)sulfonyl)-3,4-dihydro-2H-benzo[b][1,4]oxazin-2-yl)-1-(1,1-dioxidothio-morpholino)propan-1-one]	> 6.30	> 6.30	**** (a value greater than 200)	** (a value in the range of greater than 90 to 150)
C/C(=C\c1ccc2c(c1)N(S(=O)(=O)c1cccc(C(F)(F)F)c1)C[C@H](CCC(=O)N1CC3(COC3)C1)O2)c1c(F)cccc1Cl [Example 127D, (S,E)-3-(6-(2-(2-chloro-6-fluorophenyl)prop-1-en-1-yl)-4-((3-(trifluoro-methyl)phenyl)sulfonyl)-3,4-dihydro-2H-benzo[b][1,4]oxazin-2-yl)-1-(2-oxa-6-azaspiro[3.3]heptan-6-yl)propan-1-one]	> 6.30	> 6.30	**** (a value greater than 200)	** (a value in the range of greater than 90 to 150)

Second part, led by results:

pEC50 (RORγ-LBD)	pEC50 (Gal4-RORγ-LBD)	Compound	TR-FRET Assay Max Response (RORγ-LBD)	Gal4-RORγ Assay Max Response (Gal4-RORγ-LBD)
> 6.30	> 6.30	C/C(=C\c1ccc2c(c1)N(S(=O)(=O)c1cccc(C(F)(F)F)c1)C[C@H](CCC(=O)N1C[C@@H](C)O[C@@H](C)C1)O2)c1c(F)cccc1Cl [Example 127E, 3-((S)-6-((E)-2-(2-chloro-6-fluorophenyl)prop-1-en-1-yl)-4-((3-(trifluoromethyl)phenyl)sulfonyl)-3,4-dihydro-2H-benzo[b][1,4]oxazin-2-yl)-1-((2S,6R)-2,6-dimethylmorpholino)propan-1-one]	*** (a value in the range of greater than 150 to 200)	* (a value in the range of 30 to 90)
> 6.30	5.30 to 6.30	C/C(=C\c1ccc2c(c1)N(S(=O)(=O)c1cccc(C(F)(F)F)c1)C[C@H](CCC(=O)N1CCNCC1)O2)c1c(F)cccc1Cl [Example 127F, (S,E)-3-(6-(2-(2-chloro-6-fluorophenyl)prop-1-en-1-yl)-4-((3-(trifluoromethyl)phenyl)sulfonyl)-3,4-dihydro-2H-benzo[b][1,4]oxazin-2-yl)-1-(piperazin-1-yl)propan-1-one]	**** (a value greater than 200)	** (a value in the range of greater than 90 to 150)
> 6.30	5.30 to 6.30	O=C(CC[C@H]1CN(S(=O)(=O)c2cccc(C(F)(F)F)c2)c2cc(/C=C/c3c(Cl)cccc3C(F)(F)F)ccc2O1)N1CC2(COC2)C1 [Example 127G, (S,E)-3-(6-(2-chloro-6-(trifluoromethyl)styryl)-4-((3-(trifluoromethyl)-phenyl)sulfonyl)-3,4-dihydro-2H-benzo[b][1,4]oxazin-2-yl)-1-(2-oxa-6-azaspiro[3.3]heptan-6-yl)propan-1-one]	**** (a value greater than 200)	* (a value in the range of 30 to 90)
> 6.30	> 6.30	C/C(=C\c1ccc2c(c1)N(S(=O)(=O)c1cccc(C(F)(F)F)c1)C[C@H](CCC(=O)N1CCC1)O2)c1c(F)cccc1Cl [Example 127H, (S,E)-1-(azetidin-1-yl)-3-(6-(2-(2-chloro-6-fluorophenyl)prop-1-en-1-yl)-4-((3-(trifluoromethyl)phenyl)sulfonyl)-3,4-dihydro-2H-benzo[b][1,4]oxazin-2-yl)propan-1-one]	*** (a value in the range of greater than 150 to 200)	** (a value in the range of greater than 90 to 150)
> 6.30	5.30 to 6.30	O=C(CC[C@H]1CN(S(=O)(=O)c2cccc(C(F)(F)F)c2)c2cc(/C=C/c3c(F)cccc3Cl)ccc2O1)N1CC2(COC2)C1 [Example 127I, (S,E)-3-(6-(2-chloro-6-fluorostyryl)-4-((3-(trifluoromethyl)phenyl)sulfonyl)-3,4-dihydro-2H-benzo[b][1,4]oxazin-2-yl)-1-(2-oxa-6-azaspiro[3.3]heptan-6-yl)propan-1-one]	*** (a value in the range of greater than 150 to 200)	** (a value in the range of greater than 90 to 150)
> 6.30	> 6.30	CC(=O)N1CCN(C(=O)CC[C@H]2CN(S(=O)(=O)c3cccc(C(F)(F)F)c3)c3cc(/C=C(\C)c4c(F)cccc4Cl)ccc3O2)CC1 [Example 127J, (S,E)-1-(4-acetyl-piperazin-1-yl)-3-(6-(2-(2-chloro-6-fluorophenyl)prop-1-en-1-yl)-4-((3-(trifluoro-methyl)-phenyl)sulfonyl)-3,4-dihydro-2H-benzo[b]-[1,4]oxazin-2-yl)propan-1-one]	*** (a value in the range of greater than 150 to 200)	** (a value in the range of greater than 90 to 150)
